Test [1] can be described thus: NIH3T3 cell viability loss – ATP luminescence, mouse fibroblasts, counter-screen, dose response (AID 2010).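 Note: cells exposed to compound for about 90 hours before reading.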 The class given is functional, cell-based. On the technique in general: Counterscreens check selectivity or assay interference.
A short description of test [2]: Trypanosoma cruzi growth suppression in host cells – NIH3T3 host cells, beta-gal luminescence, confirmation (AID 2044).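 Note: intracellular parasites grown in NIH/3T3 mouse fibroblasts as host cells; luminescent beta-galactosidase reporter signal from transgenic T. cruzi replicating inside host cells; inhibitors lower the luminescence signal.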 The class given is functional, cell-based.
The subject of the next test is H9c2. Put plainly: cells. The class given is functional, cell-based. The note with it: Rattus norvegicus, H9c2, Myocardium.
In test [3] the target is T1, Mannose-6-phosphate isomerase (Homo sapiens, UniProt P34949).
T1 sequence (P34949 whole entry): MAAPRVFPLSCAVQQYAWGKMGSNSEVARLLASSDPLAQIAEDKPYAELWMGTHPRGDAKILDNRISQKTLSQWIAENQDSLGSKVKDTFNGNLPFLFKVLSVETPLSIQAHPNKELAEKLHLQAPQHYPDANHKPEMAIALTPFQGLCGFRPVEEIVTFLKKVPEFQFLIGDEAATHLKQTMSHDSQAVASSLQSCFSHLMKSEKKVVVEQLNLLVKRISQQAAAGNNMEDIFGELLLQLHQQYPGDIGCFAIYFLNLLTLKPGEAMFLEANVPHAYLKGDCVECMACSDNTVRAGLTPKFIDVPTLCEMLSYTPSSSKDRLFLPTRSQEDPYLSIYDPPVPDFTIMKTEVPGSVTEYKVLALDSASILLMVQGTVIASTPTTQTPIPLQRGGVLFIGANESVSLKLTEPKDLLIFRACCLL
Description: MPI inhibition at elevated mannose 6-phosphate – biochemical, fluorescence intensity, high mannose 6-phosphate, primary screen (AID 1220).

Test [4] deals with Mitogen-activated protein kinase 10 (Homo sapiens, UniProt P53779). Description: Dose response biochemical screening assay for inhibitors of c-Jun N-Terminal Kinase 3 (JNK3). [Related pubchem assays: 746 ].
Test [5] has as its target Voltage-gated inwardly rectifying potassium channel KCNH2 (Homo sapiens, UniProt Q12809). Put plainly: concentration-dependent hERG rescue from blockers – cell-based, thallium flux, dose response (AID 2121). It is filed as ADME.
Test [6] has as its target T2, Replicative DNA helicase DnaB (Mycobacterium tuberculosis, UniProt P9WMR3).
T2 sequence (P9WMR3 whole entry): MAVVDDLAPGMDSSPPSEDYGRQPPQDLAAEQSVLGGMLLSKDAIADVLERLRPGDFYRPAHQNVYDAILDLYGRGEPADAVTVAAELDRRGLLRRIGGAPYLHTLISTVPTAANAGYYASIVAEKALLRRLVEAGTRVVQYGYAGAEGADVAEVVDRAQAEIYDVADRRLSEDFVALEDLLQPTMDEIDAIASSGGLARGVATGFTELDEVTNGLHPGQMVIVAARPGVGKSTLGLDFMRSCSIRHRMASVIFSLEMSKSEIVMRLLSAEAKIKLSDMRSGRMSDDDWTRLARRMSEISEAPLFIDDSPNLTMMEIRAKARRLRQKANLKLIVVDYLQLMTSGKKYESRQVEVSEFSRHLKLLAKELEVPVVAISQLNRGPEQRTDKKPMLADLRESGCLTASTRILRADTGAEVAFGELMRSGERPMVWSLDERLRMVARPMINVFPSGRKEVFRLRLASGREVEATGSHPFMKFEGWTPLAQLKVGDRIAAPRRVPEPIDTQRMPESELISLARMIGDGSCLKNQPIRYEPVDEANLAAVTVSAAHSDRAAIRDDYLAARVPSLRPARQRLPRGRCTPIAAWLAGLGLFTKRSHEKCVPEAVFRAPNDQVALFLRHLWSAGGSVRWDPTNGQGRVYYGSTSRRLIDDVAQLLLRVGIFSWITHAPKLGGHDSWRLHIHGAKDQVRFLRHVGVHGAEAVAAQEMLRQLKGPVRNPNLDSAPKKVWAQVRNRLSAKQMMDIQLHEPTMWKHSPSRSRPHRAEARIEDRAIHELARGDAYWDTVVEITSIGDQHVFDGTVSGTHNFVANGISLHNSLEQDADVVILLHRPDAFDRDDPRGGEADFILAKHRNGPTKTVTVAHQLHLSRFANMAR
Description: DnaB intein splicing inhibitors, dose response, biochemical, cell-free fluorescence (AID 449749). It is filed as functional.

The next test concerns the target Genome polyprotein (dengue virus type 2, UniProt P29990). Description: flavivirus cap methylation enzyme inhibition – biochemical, confirmation dose response, primary screen (AID 588689). The class given is functional.
A further test addresses T3, Protein RecA (Mycobacterium tuberculosis, UniProt P9WHJ3).
T3 sequence (P9WHJ3 whole entry): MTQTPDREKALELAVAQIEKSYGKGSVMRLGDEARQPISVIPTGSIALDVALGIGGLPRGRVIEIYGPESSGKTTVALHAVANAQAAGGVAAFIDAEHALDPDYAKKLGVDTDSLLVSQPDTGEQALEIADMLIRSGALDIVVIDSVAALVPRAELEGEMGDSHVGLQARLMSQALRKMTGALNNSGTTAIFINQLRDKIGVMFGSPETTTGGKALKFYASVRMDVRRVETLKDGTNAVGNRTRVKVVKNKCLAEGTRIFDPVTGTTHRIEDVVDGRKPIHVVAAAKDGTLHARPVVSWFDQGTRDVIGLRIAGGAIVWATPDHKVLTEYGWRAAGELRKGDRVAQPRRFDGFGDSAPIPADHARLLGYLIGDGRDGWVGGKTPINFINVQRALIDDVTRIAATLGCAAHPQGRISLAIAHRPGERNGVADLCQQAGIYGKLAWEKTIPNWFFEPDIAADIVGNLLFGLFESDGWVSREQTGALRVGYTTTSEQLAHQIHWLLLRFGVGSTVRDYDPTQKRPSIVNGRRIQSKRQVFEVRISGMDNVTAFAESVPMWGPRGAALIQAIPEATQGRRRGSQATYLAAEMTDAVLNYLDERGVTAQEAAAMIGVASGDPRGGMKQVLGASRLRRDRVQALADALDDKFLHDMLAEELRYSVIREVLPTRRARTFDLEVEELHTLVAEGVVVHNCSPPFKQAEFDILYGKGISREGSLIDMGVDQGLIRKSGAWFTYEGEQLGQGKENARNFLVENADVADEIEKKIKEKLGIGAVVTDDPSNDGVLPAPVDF
Put plainly: Fluorescence Cell-Free Homogeneous Dose Retest to Identify Inhibitors of RecA-Intein Splicing Activity. [Related pubchem assays (depositor defined):AID2097, AID2223, AID489010, AID492950]. The class given is functional.

The test system of the next test is Vero. Description: viability of Vero cells under compound – cytotoxicity control for flavivirus capping enzyme inhibitors (AID 588742). It is filed as functional. The note with it: Chlorocebus sabaeus.
The target in test [7] is T4, Heat shock factor protein 1 (Mus musculus, UniProt P38532).
T4 sequence (P38532 whole entry): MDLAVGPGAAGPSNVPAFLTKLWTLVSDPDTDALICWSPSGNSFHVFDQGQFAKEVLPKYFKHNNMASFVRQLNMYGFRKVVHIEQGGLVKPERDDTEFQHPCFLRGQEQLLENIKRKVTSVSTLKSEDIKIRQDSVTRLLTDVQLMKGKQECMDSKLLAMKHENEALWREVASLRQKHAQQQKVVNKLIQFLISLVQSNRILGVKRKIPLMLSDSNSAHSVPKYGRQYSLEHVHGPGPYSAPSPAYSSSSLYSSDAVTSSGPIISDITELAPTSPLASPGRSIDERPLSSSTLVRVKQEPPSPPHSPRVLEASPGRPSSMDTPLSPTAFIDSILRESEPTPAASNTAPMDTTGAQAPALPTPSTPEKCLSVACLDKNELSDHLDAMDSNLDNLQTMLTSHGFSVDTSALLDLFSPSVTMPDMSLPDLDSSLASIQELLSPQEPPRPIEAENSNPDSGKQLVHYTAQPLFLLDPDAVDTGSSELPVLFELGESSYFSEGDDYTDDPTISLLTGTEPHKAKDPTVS
Put plainly: enhancement of HSF1-driven luciferase signal – cell-based, NIH3T3, luminescence, dose retest, confirmation (AID 435004).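 Note: stress induced by proteasome inhibitor MG132 added 30 min after compound; luciferase reporter driven by HSF1 response element in NIH3T3 cells; actives raise luminescence as potentiators of the MG132 stress response.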 It is filed as functional.

Test [8] deals with T5, Rac GTPase-activating protein 1 (Homo sapiens, UniProt Q9H0H5).
T5 sequence (Q9H0H5 whole entry): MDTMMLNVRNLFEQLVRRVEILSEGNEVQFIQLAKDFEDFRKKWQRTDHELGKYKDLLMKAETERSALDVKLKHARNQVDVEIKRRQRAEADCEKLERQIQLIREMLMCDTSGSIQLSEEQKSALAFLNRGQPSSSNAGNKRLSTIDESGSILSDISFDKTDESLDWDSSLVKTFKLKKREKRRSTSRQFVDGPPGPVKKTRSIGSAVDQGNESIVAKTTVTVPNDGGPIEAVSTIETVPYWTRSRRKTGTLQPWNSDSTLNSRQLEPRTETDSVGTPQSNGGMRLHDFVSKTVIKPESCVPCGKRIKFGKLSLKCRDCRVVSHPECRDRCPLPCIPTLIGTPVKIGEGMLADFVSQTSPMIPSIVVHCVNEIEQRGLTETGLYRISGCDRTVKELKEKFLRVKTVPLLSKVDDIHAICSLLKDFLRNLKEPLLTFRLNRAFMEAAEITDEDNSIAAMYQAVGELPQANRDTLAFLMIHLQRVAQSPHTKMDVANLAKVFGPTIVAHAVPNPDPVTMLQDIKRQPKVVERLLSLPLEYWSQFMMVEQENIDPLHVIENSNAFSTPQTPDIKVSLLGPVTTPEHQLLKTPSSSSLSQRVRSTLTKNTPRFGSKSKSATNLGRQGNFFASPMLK
Put plainly: blockers of MgcRacGAP-driven Rac1 GTP hydrolysis – biochemical, ADP Hunter fluorescence, primary and confirmatory, confirmation (AID 624330). The class given is functional.

A short description of test [9]: rise of 2N DNA cells, HeLa – IC50, dose response (AID 1117349). The class given is functional, cell-based.
The nature of test [10]: cytotoxicity toward HT-29 cells – cell-based, CellTiter-Glo luminescence, IC50, dose response (AID 1117330). The class given is functional.
A short description of test [11]: SNU-C1 cell viability reduction, dose response, CellTiter-Glo luminescence (AID 1117323). It is filed as functional, cell-based. (In general: ATP-based viability assays read luminescence as a measure of living cells.)
Test [12] can be described thus: HCT116 cell viability decrease, GSK3B pretreatment – CellTiter-Glo, IC50, dose response (AID 1117339). The class given is functional. The note with it: HCT-116.
The nature of test [13]: rise of 4N DNA cells, HeLa – IC50, dose response (AID 1117351). The class given is functional, cell-based.
The nature of test [14]: cytotoxicity toward HCT116 cells – cell-based, CellTiter-Glo luminescence, IC50, dose response (AID 1117332). It is filed as functional. The note with it: HCT-116.
Test [15] is described as follows: RKO cell viability reduction, dose response, CellTiter-Glo luminescence (AID 1117322). The class given is functional.
The nature of test [16]: cytotoxicity toward Colo320 cells – cell-based, CellTiter-Glo luminescence, IC50, dose response (AID 1117334). The class given is functional. To be noted: COLO 320.
Test [17] is described as follows: CellTiter-Glo luminescence survival assay, SW480 colon tumor line, concentration-response curve, half-maximal inhibitory concentration (AID 1117338). It is filed as functional.
A short description of test [18]: Reduced DLD-1 viability, concentration-response, CellTiter-Glo luminescence (AID 1117352). It is filed as functional.

The source made the active and inactive calls.

Sequence of Mitogen-activated protein kinase 10 (P53779 whole entry): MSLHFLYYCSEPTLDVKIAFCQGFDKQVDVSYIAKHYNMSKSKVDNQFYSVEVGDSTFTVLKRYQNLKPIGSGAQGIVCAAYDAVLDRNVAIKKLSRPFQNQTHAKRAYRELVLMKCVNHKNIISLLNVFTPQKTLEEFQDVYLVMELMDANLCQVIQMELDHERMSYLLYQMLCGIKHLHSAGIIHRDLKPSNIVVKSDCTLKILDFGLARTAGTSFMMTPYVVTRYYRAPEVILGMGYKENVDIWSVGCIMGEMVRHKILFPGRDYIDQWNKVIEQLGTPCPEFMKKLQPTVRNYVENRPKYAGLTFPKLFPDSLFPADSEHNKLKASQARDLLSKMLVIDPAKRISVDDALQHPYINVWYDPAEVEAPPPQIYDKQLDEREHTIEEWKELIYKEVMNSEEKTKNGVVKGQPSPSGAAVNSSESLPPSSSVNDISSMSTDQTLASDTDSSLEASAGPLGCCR
Sequence of Voltage-gated inwardly rectifying potassium channel KCNH2 (Q12809 whole entry): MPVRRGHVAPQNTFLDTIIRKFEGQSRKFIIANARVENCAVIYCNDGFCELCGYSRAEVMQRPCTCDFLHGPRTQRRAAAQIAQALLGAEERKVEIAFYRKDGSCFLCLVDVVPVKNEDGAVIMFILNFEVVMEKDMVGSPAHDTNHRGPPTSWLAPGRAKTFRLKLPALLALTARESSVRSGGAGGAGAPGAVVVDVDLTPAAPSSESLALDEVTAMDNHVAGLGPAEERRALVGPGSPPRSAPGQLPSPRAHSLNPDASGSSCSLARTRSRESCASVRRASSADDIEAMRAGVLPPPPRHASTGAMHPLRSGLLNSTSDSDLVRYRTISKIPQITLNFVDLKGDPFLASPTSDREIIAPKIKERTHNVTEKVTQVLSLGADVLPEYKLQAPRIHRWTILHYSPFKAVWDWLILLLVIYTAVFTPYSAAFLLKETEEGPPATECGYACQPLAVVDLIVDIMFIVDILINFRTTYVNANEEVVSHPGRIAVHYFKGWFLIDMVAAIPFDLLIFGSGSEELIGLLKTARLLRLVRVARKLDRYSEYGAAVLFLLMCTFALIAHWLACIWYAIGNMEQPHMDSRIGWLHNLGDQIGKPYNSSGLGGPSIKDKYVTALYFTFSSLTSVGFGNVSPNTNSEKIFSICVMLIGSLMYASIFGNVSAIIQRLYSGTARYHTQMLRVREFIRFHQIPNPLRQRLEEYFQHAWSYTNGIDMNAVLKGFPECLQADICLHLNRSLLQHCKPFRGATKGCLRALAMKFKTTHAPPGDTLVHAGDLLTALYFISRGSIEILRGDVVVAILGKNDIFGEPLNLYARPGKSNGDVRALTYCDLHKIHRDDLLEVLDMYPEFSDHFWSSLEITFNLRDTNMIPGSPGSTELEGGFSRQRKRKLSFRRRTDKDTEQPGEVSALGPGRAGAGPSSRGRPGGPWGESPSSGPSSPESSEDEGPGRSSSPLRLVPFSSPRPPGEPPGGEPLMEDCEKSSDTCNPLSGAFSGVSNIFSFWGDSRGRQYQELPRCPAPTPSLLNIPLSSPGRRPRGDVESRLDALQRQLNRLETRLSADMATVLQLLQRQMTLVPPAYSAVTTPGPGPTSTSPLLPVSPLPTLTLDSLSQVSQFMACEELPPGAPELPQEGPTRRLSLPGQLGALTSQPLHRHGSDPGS
Sequence of Genome polyprotein (P29990 2492-3391 limits assumed): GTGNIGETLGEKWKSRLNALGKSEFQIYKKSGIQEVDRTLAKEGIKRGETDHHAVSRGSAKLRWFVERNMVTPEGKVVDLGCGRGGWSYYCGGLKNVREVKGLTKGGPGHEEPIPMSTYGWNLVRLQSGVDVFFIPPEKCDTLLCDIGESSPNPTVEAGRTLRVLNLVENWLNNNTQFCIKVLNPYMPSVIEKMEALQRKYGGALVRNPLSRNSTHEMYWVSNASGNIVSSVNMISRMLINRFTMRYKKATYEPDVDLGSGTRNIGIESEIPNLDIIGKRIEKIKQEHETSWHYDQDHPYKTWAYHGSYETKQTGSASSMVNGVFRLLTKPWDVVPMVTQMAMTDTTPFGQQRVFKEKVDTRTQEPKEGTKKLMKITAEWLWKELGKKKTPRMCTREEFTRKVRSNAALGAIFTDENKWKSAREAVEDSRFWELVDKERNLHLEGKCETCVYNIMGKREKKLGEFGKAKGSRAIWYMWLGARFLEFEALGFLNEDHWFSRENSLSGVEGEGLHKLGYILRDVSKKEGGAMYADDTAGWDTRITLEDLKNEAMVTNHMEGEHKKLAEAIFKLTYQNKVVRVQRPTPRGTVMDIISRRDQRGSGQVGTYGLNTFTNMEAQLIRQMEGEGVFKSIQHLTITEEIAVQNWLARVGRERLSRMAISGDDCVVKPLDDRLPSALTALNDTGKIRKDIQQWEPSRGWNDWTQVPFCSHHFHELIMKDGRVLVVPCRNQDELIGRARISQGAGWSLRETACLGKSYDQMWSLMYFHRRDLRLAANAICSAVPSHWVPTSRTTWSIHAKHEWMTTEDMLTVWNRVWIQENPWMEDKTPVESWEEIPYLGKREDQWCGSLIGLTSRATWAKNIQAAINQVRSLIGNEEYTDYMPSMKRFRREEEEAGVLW

In general, EC50 refers to the concentration giving half of the maximal effect. With `Cc1ccsc1C(=O)C1CCCN(Cc2c(C)nn(C(C)C)c2C)C1` (centres undefined), the EC50 was > 60 µM (not active) in test [1], 0.008 µM (active) in “cells” and < 0.1 µM (active) in [2].

The term IC50 denotes the concentration that gives 50% inhibition. In the case of `Fc1ccc(NC(S)=Nc2ccc3nccnc3c2)cc1`, the values for the IC50 (in the test on H9c2; in test [3]) were 22.5 µM (active) and > 50 µM (not active), respectively.

On to `COC(=O)c1cccc(NC(=O)CN2CCC(NC(=O)c3cc(OC)c(OC)c(OC)c3)CC2)c1`, for which the IC50 in test [4] is 1.7 µM (active).

With `FC(F)(F)c1cnc2c(c1)nc(S)n2-c1ccc(Cl)cc1`, the EC50 in test [5] is 4.84 µM (active).

Broadly, the AC50 is the midpoint of the concentration-response curve, whichever way the signal moves. As usually defined, the CC50 is the concentration at which the toxic effect on the cells reaches its halfway point. As for `COc1ccc2c(c1)-c1nc(/N=C/c3c(O)ccc4ccccc34)sc1CC2`, the AC50 in test [6] was 40.8 µM (active). Also, the IC50 on Genome polyprotein is 6.25 µM (active); in test [3], 13 µM (active); in test [8], 22.2 µM (active). Also, the EC50 at Protein RecA is > 380 µM (inconclusive); in [7] it was > 260 µM (inactive). For the same compound, in the test with Vero, the CC50 is > 40 µM (active).

Regarding `COc1c(C)c2c(c(O)c1C/C=C(\C)CCC(=O)OCCN1CCOCC1)C(=O)OC2` [MYCOPHENOLATE MOFETIL], the IC50 was > 10 µM (inactive) in test [9]; > 20 µM (inactive) in test [10]; > 20 µM (inactive) in test [11]; 0.0498 µM (active) in [12]; > 10 µM (inactive) in test [13]; 0.0672 µM (active) in [14]. Moreover, the IC50 is 0.165 µM (active) in test [15], 0.001 µM (active) in test [16], 2.6 µM (active) in test [17] and > 20 µM (inactive) in test [18].
